Data published in patent US12010997B2, “Systems, methods, and apparatuses for disinfection and decontamination” (priority 2020, dated 2024).

Test system: Phi6 bacteriophage (surrogate for Coronavirus and Ebola)
Format: cell-based

Compound: [O][Cl+][O-] [ClO2, chlorine dioxide]
- log reduction of virions: 6 log
- time in which 6-log reduction was achieved: less than 90 minutes
- virions recovered from the coupons treated with ClO2 gas: no virions were recovered
